Experiments:
[1] = molecular target: T1, PDE5A (Homo sapiens, UniProt O76074); assay: Phosphodiesterase 5 HTRF cGMP assay; format: biochemical; conditions: for IC50: means ± S.D. (n = 4), read-out: PDE5 IC50; for inhibition at 10 µM: read-out: PDE5 % Inhibition at 10 μM
T1 construct: purchased BPS Bioscience, San Diego, CA, USA
Protocol: All the synthesized acridine derivatives were tested for their in vitro ability to inhibit PDE5A at a screening dose of 10 µM.
The enzyme activities of phosphodiesterase 5 (PDE5) were measured using an HTRF cGMP assay kit (Cisbio, Codolet, France). […] Afterward, the HTRF reagent (cGMP-d2 and anti-cGMP-cryptate) was added for 1 h at 25 °C, and PDE activity was assayed on an HTRF reader (Tecan Infinite F200 Pro).

[2] = system: CCRF-CEM; assay: NCI-60 one-dose screen; format: cell-based; conditions: Homo sapiens, Leukemia panel, single dose 10^−5 M, read-out: Growth inhibition %
[3] = system: ACHN; assay: NCI-60 one-dose screen; format: cell-based; conditions: Homo sapiens, Renal Cancer panel, single dose 10^−5 M, read-out: Growth inhibition %
Protocol: (§1) The newly synthesized compounds were screened for their in vitro anticancer activity at the Developmental Therapeutic Program (DTP) of the National Cancer Institute (NCI). The screening involved a panel of 60 human tumor cell lines consisting of 9 tissue types to screen for potential anti-cancer agents. The primary screening of submitted compounds was performed by testing a single dose (10^−5 M) in the full NCI-60 panel. The detailed % inhibition by the tested compounds against the 60 cell lines is shown in Tables S1–S3 in the Supporting Information.

[4] = system: CAKI-1; assay: NCI-60 one-dose screen; format: cell-based; conditions: Homo sapiens; CAKI-1, Renal Cancer panel; single dose 10^−5 M; read-out: Growth inhibition %
Protocol: as §1

[5] = system: COLO 205; assay: NCI-60 one-dose screen; format: cell-based; conditions: Homo sapiens; COLO 205, Colon Cancer panel; single dose 10^−5 M; read-out: Growth inhibition %
Protocol: as §1

[6] = system: HCC-2998; assay: NCI-60 one-dose screen; format: cell-based; conditions: Homo sapiens; HCC-2998, Colon Cancer panel; single dose 10^−5 M; read-out: Growth inhibition %
Protocol: as §1

[7] = system: HCT-15; assay: NCI-60 one-dose screen; format: cell-based; conditions: Homo sapiens; HCT-15, Colon Cancer panel; single dose 10^−5 M; read-out: Growth inhibition %
Protocol: as §1

[8] = system: HOP-92; assay: NCI-60 one-dose screen; format: cell-based; conditions: Homo sapiens; HOP-92, Non-small cell lung panel; single dose 10^−5 M; read-out: Growth inhibition %
Protocol: as §1

[9] = system: K-562; assay: NCI-60 one-dose screen; format: cell-based; conditions: Homo sapiens, K562; K-562, Leukemia panel; single dose 10^−5 M; read-out: Growth inhibition %
Protocol: as §1

[10] = system: KM12; assay: NCI-60 one-dose screen; format: cell-based; conditions: Homo sapiens; KM12, Colon Cancer panel; single dose 10^−5 M; read-out: Growth inhibition %
Protocol: as §1

[11] = system: M14; assay: NCI-60 one-dose screen; format: cell-based; conditions: Homo sapiens; M14, Melanoma panel; single dose 10^−5 M; read-out: Growth inhibition %
Protocol: as §1

[12] = system: MDA-MB-435; assay: NCI-60 one-dose screen; format: cell-based; conditions: Homo sapiens; MDA-MB-435, Melanoma panel; single dose 10^−5 M; read-out: Growth inhibition %
Protocol: as §1

[13] = system: NCI-H522; assay: NCI-60 one-dose screen; format: cell-based; conditions: Homo sapiens; NCI-H522, Non-small cell lung panel; single dose 10^−5 M; read-out: Growth inhibition %
Protocol: as §1

[14] = system: NCI/ADR-RES; assay: NCI-60 one-dose screen; format: cell-based; conditions: Homo sapiens, Ovarian Cancer panel, single dose 10^−5 M, read-out: Growth inhibition %
Protocol: as §1

[15] = system: OVCAR-3; assay: NCI-60 one-dose screen; format: cell-based; conditions: Homo sapiens; OVCAR-3, Ovarian Cancer panel; single dose 10^−5 M; read-out: Growth inhibition %
Protocol: as §1

[16] = system: SF-295; assay: NCI-60 one-dose screen; format: cell-based; conditions: Homo sapiens; SF-295, CNS Cancer panel; single dose 10^−5 M; read-out: Growth inhibition %
Protocol: as §1

[17] = system: SK-MEL-28; assay: NCI-60 one-dose screen; format: cell-based; conditions: Homo sapiens; SK-MEL-28, Melanoma panel; single dose 10^−5 M; read-out: Growth inhibition %
Protocol: as §1

[18] = system: SK-MEL-2; assay: NCI-60 one-dose screen; format: cell-based; conditions: Homo sapiens; SK-MEL-2, Melanoma panel; single dose 10^−5 M; read-out: Growth inhibition %
Protocol: as §1

[19] = system: SK-MEL-5; assay: NCI-60 one-dose screen; format: cell-based; conditions: Homo sapiens; SK-MEL-5, Melanoma panel; single dose 10^−5 M; read-out: Growth inhibition %
Protocol: as §1

[20] = system: SK-OV-3; assay: NCI-60 one-dose screen; format: cell-based; conditions: Homo sapiens; SK-OV-3, Ovarian Cancer panel; single dose 10^−5 M; read-out: Growth inhibition %
Protocol: as §1

[21] = system: SN12C; assay: NCI-60 one-dose screen; format: cell-based; conditions: Homo sapiens, Renal Cancer panel, single dose 10^−5 M, read-out: Growth inhibition %
Protocol: as §1

[22] = system: SNB-75; assay: NCI-60 one-dose screen; format: cell-based; conditions: Homo sapiens; SNB-75, CNS Cancer panel; single dose 10^−5 M; read-out: Growth inhibition %
Protocol: as §1

[23] = system: SR; assay: NCI-60 one-dose screen; format: cell-based; conditions: Homo sapiens, Leukemia panel, single dose 10^−5 M, read-out: Growth inhibition %
Protocol: as §1

[24] = system: SW-620; assay: NCI-60 one-dose screen; format: cell-based; conditions: Homo sapiens; SW-620, Colon Cancer panel; single dose 10^−5 M; read-out: Growth inhibition %
Protocol: as §1

[25] = system: T-47D; assay: NCI-60 one-dose screen; format: cell-based; conditions: Homo sapiens, T47D, Breast Cancer panel, single dose 10^−5 M, read-out: Growth inhibition %
Protocol: as §1

[26] = system: U251; assay: NCI-60 one-dose screen; format: cell-based; conditions: Homo sapiens, U-251; U251, CNS Cancer panel; single dose 10^−5 M; read-out: Growth inhibition %
Protocol: as §1

[27] = system: UACC-257; assay: NCI-60 one-dose screen; format: cell-based; conditions: Homo sapiens; UACC-257, Melanoma panel; single dose 10^−5 M; read-out: Growth inhibition %
Protocol: as §1

[28] = system: SF-268; assay: NCI-60 one-dose screen; format: cell-based; conditions: Homo sapiens; SF-268, CNS Cancer panel; single dose 10^−5 M; read-out: Growth inhibition %
[29] = system: LOX IMVI; assay: NCI-60 one-dose screen; format: cell-based; conditions: Homo sapiens, Melanoma panel, single dose 10^−5 M, read-out: Growth inhibition %
[30] = system: IGROV1; assay: NCI-60 one-dose screen; format: cell-based; conditions: Homo sapiens, IGROV-1; IGROV1, Ovarian Cancer panel; single dose 10^−5 M; read-out: Growth inhibition %

SMILES | IC50 [1] | inhibition at 10 µM [1] | inhibition at 10 µM [2] | inhibition at 10 µM [3] | inhibition at 10 µM [4] | inhibition at 10 µM [5] | inhibition at 10 µM [6] | inhibition at 10 µM [7] | inhibition at 10 µM [8] | inhibition at 10 µM [9] | inhibition at 10 µM [10] | inhibition at 10 µM [11] | inhibition at 10 µM [12] | inhibition at 10 µM [13] | inhibition at 10 µM [14] | inhibition at 10 µM [15] | inhibition at 10 µM [16] | inhibition at 10 µM [17] | inhibition at 10 µM [18] | inhibition at 10 µM [19] | other results
Cc1ccc(CNc2c3ccccc3nc3ccccc23)cc1 [Compound 4, Acridin-9-yl-(4-methylbenzyl)-amine] | 4.44 ± 1.82 µM | 74 ± 12.4% | 79.1% | 86% | 81.4% | 99.7% | 103% | 84.4% | 96.8% | 97% | 76.5% | 72% | 68.8% | 51% | 73.9% | 65.8% | 68.7% | 40.5% | 57.3% | 69.9% | inhibition at 10 µM [20]: 53.1%; inhibition at 10 µM [21]: 75.1%; inhibition at 10 µM [22]: 58.3%; inhibition at 10 µM [23]: 101%; inhibition at 10 µM [24]: 79.8%; inhibition at 10 µM [25]: 71.9%; inhibition at 10 µM [26]: 74%; inhibition at 10 µM [27]: 60.6%; inhibition at 10 µM [28]: 48.1%; inhibition at 10 µM [29]: 88.2%; inhibition at 10 µM [30]: 80.6%
COc1ccccc1CNc1c2ccccc2nc2ccccc12 [Compound 5, Acridin-9-yl-(2-methoxybenzyl)-amine] | > 10 µM | 45.1 ± 4.54% | 62.5% | 77.3% | 54.3% | 87.2% | 61.1% | 74% | 81.8% | 89.9% | 67.1% | 59.1% | 57.4% | 37.6% | 65.2% | 45.7% | 62.6% | 20% | 26.5% | 40.8% | inhibition at 10 µM [20]: 38.6%; inhibition at 10 µM [21]: 65.3%; inhibition at 10 µM [22]: 36.5%; inhibition at 10 µM [23]: 90.1%; inhibition at 10 µM [24]: 77.9%; inhibition at 10 µM [25]: 53.8%; inhibition at 10 µM [26]: 61.4%; inhibition at 10 µM [27]: 35.9%; inhibition at 10 µM [28]: 34.9%; inhibition at 10 µM [29]: 81.1%; inhibition at 10 µM [30]: 73.7%
COc1cccc(CNc2c3ccccc3nc3ccccc23)c1 [Compound 6, Acridin-9-yl-(3-methoxybenzyl)-amine] | > 10 µM | 39.7 ± 3.2% | 69.8% | 80.8% | 64.3% | 90.4% | 60.7% | 75.6% | 74.5% | 93.4% | 64.1% | 64.8% | 57% | 38.3% | 62.5% | 45.2% | 64% | 18.8% | 32.1% | 42.4% | inhibition at 10 µM [20]: 45.3%; inhibition at 10 µM [21]: 62.1%; inhibition at 10 µM [22]: 43.1%; inhibition at 10 µM [23]: 91.6%; inhibition at 10 µM [24]: 74.5%; inhibition at 10 µM [25]: 54.1%; inhibition at 10 µM [26]: 61.3%; inhibition at 10 µM [27]: 45%; inhibition at 10 µM [28]: 28.8%; inhibition at 10 µM [29]: 80.2%; inhibition at 10 µM [30]: 71.7%
COc1ccc(CNc2c3ccccc3nc3ccccc23)cc1 [Compound 7, Acridin-9-yl-(4-methoxybenzyl)-amine] | > 10 µM | < 0% | 61% | 81.2% | 70.7% | 88.4% | 61.4% | 78% | 75.5% | 93% | 66.8% | 62.9% | 59.8% | 47% | 61.2% | 51.9% | 60.9% | 20.4% | 39.9% | 37.8% | inhibition at 10 µM [20]: 46.2%; inhibition at 10 µM [21]: 67.8%; inhibition at 10 µM [22]: 38.2%; inhibition at 10 µM [23]: 93%; inhibition at 10 µM [24]: 74.4%; inhibition at 10 µM [25]: 55.1%; inhibition at 10 µM [26]: 63.5%; inhibition at 10 µM [27]: 47.7%; inhibition at 10 µM [28]: 36.6%; inhibition at 10 µM [29]: 79.1%; inhibition at 10 µM [30]: 72.8%
Fc1ccccc1CNc1c2ccccc2nc2ccccc12 [Compound 8, Acridin-9-yl-(2-fluorobenzyl)-amine] | 7.16 ± 2.75 µM | 57.5 ± 6.43% | 54% | 76.9% | 64.2% | 84.9% | 52% | 70.3% | 77.3% | 85.8% | 57.8% | 46% | 43.8% | 34.2% | 62% | 35.9% | 48.2% | 15.9% | 21.8% | 39.3% | inhibition at 10 µM [20]: 49.1%; inhibition at 10 µM [21]: 60.4%; inhibition at 10 µM [22]: 28.3%; inhibition at 10 µM [23]: 82%; inhibition at 10 µM [24]: 71.5%; inhibition at 10 µM [25]: 55.2%; inhibition at 10 µM [26]: 53.1%; inhibition at 10 µM [27]: 41.2%; inhibition at 10 µM [28]: 20.1%; inhibition at 10 µM [29]: 73.9%; inhibition at 10 µM [30]: 63.4%
